The numbers were not newly measured in patent publication US7981605B2, “Epidermal growth factor receptor mutations” (Amgen Inc., priority 2005, dated 2011), which cites them from elsewhere.

Series [1] deals with NSCLC tumors with EGFr mutations. The note with it: deletions in amino acids 746-759 region, L858R, L861Q, G719C, G719S, R776C/L858R (Lynch, Paez, Pao 2004).
The next series concerns A431 tumor xenografts. Particulars: athymic mice.

Regarding `C#Cc1cccc(Nc2ncnc3cc(OCCOC)c(OCCOC)cc23)c1` [erlotinib, N-(3-ethynylphenyl)-6,7-bis(2-methoxyethoxy)-4-quinazolinamine], in series [1], the “sensitivity of NSCLC tumors with EGFr mutations” value is reported as “display sensitivity”. With “panitumumab: a human IgG2 monoclonal antibody against human EGFr; human anti-EGFr antibody (Amgen)”, the “formation of A431 xenografts” value in the series on A431 tumor xenografts is reported as “preventing the formation of human epidermoid carcinoma A431 xenografts”.
